Test results taken from PubChem BioAssay (NCI).
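Where inhibition never reached the appropriate level, the endpoint shown equals the highest concentration tested. Otherwise, values were interpolated linearly from a five-concentration, 48-hour dose response in 96-well plates. GI50 = concentration required for 50% inhibition of growth. TGI is the concentration that stops growth completely.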

Assays:
Test in all cases: DTP human tumour cell line panel, 48 h
KM12 colon = test system: KM12 colon
MDA-MB-231 breast = test system: MDA-MB-231 breast
A549 NSCLC = test system: A549 NSCLC
PC-3 prostate = test system: PC-3 prostate
RPMI-8226 leukemia = test system: RPMI-8226 leukemia
OVCAR-8 ovarian = test system: OVCAR-8 ovarian
MOLT-4 leukemia = test system: MOLT-4 leukemia
MDA-MB-435 = test system: MDA-MB-435
UO-31 renal = test system: UO-31 renal
NCI-H226 lung = test system: NCI-H226 lung
786-0 renal = test system: 786-0 renal
HL-60(TB) leukemia = test system: HL-60(TB) leukemia
OVCAR-4 ovarian = test system: OVCAR-4 ovarian
OVCAR-5 ovarian = test system: OVCAR-5 ovarian
U251 CNS = test system: U251 CNS
SF-295 CNS = test system: SF-295 CNS
UACC-62 melanoma = test system: UACC-62 melanoma
SK-OV-3 ovarian = test system: SK-OV-3 ovarian
BT-549 breast = test system: BT-549 breast
LOX IMVI melanoma = test system: LOX IMVI melanoma
NCI-H23 lung = test system: NCI-H23 lung
CAKI-1 renal = test system: CAKI-1 renal
EKVX NSCLC = test system: EKVX NSCLC
TK-10 renal = test system: TK-10 renal
OVCAR-3 ovarian = test system: OVCAR-3 ovarian
SK-MEL-5 melanoma = test system: SK-MEL-5 melanoma
ACHN renal = test system: ACHN renal
HCC-2998 colon = test system: HCC-2998 colon
SNB-75 CNS = test system: SNB-75 CNS
NCI-H522 lung = test system: NCI-H522 lung
SN12C renal = test system: SN12C renal
HCT-15 colon = test system: HCT-15 colon
SNB-19 CNS = test system: SNB-19 CNS
IGROV1 ovarian = test system: IGROV1 ovarian
HCT-116 colon = test system: HCT-116 colon
NCI-H460 lung = test system: NCI-H460 lung
HS 578T breast = test system: HS 578T breast
MALME-3M melanoma = test system: MALME-3M melanoma
NCI/ADR-RES ovarian = test system: NCI/ADR-RES ovarian
SF-268 CNS = test system: SF-268 CNS
DU-145 prostate = test system: DU-145 prostate
SK-MEL-28 melanoma = test system: SK-MEL-28 melanoma
CCRF-CEM leukemia = test system: CCRF-CEM leukemia
SR leukemia = test system: SR leukemia
K-562 leukemia = test system: K-562 leukemia
SF-539 CNS = test system: SF-539 CNS
COLO 205 colon = test system: COLO 205 colon
HT29 colon = test system: HT29 colon
SK-MEL-2 melanoma = test system: SK-MEL-2 melanoma
SW-620 colon = test system: SW-620 colon
T-47D breast = test system: T-47D breast
HOP-62 NSCLC = test system: HOP-62 NSCLC
M14 melanoma = test system: M14 melanoma
A498 renal = test system: A498 renal
UACC-257 melanoma = test system: UACC-257 melanoma
MCF7 breast = test system: MCF7 breast
HOP-92 NSCLC = test system: HOP-92 NSCLC

`O=C(CCCCCCNC(=O)C(O)(O)C(F)(F)F)Nc1ccc(-c2ccccc2)cc1` gave a GI50 (KM12 colon) of 3.84 µM, a TGI (KM12 colon) of 9.23 µM and a GI50 (MDA-MB-231 breast) of 2.84 µM. For the same compound, the TGI (MDA-MB-231 breast) was 10.7 µM, the GI50 (A549 NSCLC) was 6.04 µM and the TGI (A549 NSCLC) was 28.8 µM. It also gave a GI50 (PC-3 prostate) of 3.78 µM, a TGI (PC-3 prostate) of 19 µM and a GI50 (RPMI-8226 leukemia) of 2.32 µM. The TGI (RPMI-8226 leukemia) was > 33.2 µM, the GI50 (OVCAR-8 ovarian) was 3.25 µM and the TGI (OVCAR-8 ovarian) was > 33.2 µM. The GI50 (MOLT-4 leukemia) was 1.32 µM, the TGI (MOLT-4 leukemia) was > 33.2 µM and the GI50 (MDA-MB-435) was 3.55 µM. The TGI (MDA-MB-435) was 32.4 µM, the GI50 (UO-31 renal) was 3.11 µM and the TGI (UO-31 renal) was 8.88 µM. The GI50 (NCI-H226 lung) was 7.55 µM, the TGI (NCI-H226 lung) was 26.6 µM and the GI50 (786-0 renal) was 4.34 µM. For the same compound, the TGI (786-0 renal) was 11.7 µM, the GI50 (HL-60(TB) leukemia) was 2.64 µM and the TGI (HL-60(TB) leukemia) was > 33.2 µM. The GI50 (OVCAR-4 ovarian) was 11 µM, the TGI (OVCAR-4 ovarian) was > 33.2 µM and the GI50 (OVCAR-5 ovarian) was 1.62 µM. The TGI (OVCAR-5 ovarian) was 9.14 µM, the GI50 (U251 CNS) was 3.62 µM and the TGI (U251 CNS) was 10.9 µM. For the same compound, the GI50 (SF-295 CNS) was 2.53 µM, the TGI (SF-295 CNS) was 7.49 µM and the GI50 (UACC-62 melanoma) was 1.31 µM. It also gave a TGI (UACC-62 melanoma) of 5.39 µM, a GI50 (SK-OV-3 ovarian) of 4.31 µM and a TGI (SK-OV-3 ovarian) of 21.6 µM. The GI50 (BT-549 breast) was 4.21 µM, the TGI (BT-549 breast) was 13.2 µM and the GI50 (LOX IMVI melanoma) was 1.96 µM. For the same compound, the TGI (LOX IMVI melanoma) was 6.29 µM, the GI50 (NCI-H23 lung) was 4.28 µM and the TGI (NCI-H23 lung) was 13.6 µM. For the same compound, the GI50 (CAKI-1 renal) was 5.74 µM, the TGI (CAKI-1 renal) was 17.5 µM and the GI50 (EKVX NSCLC) was 5.26 µM. The TGI (EKVX NSCLC) was > 33.2 µM, the GI50 (TK-10 renal) was 1.63 µM and the TGI (TK-10 renal) was > 33.2 µM. It also gave a GI50 (OVCAR-3 ovarian) of 3.39 µM, a TGI (OVCAR-3 ovarian) of 8.2 µM and a GI50 (SK-MEL-5 melanoma) of 1.94 µM. For the same compound, the TGI (SK-MEL-5 melanoma) was 6.27 µM, the GI50 (ACHN renal) was 2.85 µM and the TGI (ACHN renal) was 9.22 µM. For the same compound, the GI50 (HCC-2998 colon) was 4.91 µM, the TGI (HCC-2998 colon) was 9.88 µM and the GI50 (SNB-75 CNS) was 2.92 µM. For the same compound, the TGI (SNB-75 CNS) was > 33.2 µM, the GI50 (NCI-H522 lung) was 3.81 µM and the TGI (NCI-H522 lung) was 20.5 µM. For the same compound, the GI50 (SN12C renal) was 4.21 µM, the TGI (SN12C renal) was 16 µM and the GI50 (HCT-15 colon) was 4.73 µM. For the same compound, the TGI (HCT-15 colon) was 9.8 µM, the GI50 (SNB-19 CNS) was 4.63 µM and the TGI (SNB-19 CNS) was 10.3 µM. The GI50 (IGROV1 ovarian) was 3.9 µM, the TGI (IGROV1 ovarian) was 10.6 µM and the GI50 (HCT-116 colon) was 1.27 µM. For the same compound, the TGI (HCT-116 colon) was 7.08 µM, the GI50 (NCI-H460 lung) was 3.24 µM and the TGI (NCI-H460 lung) was 11.4 µM. The GI50 (HS 578T breast) was 4.15 µM, the TGI (HS 578T breast) was 25.3 µM and the GI50 (MALME-3M melanoma) was 1.6 µM. It also gave a TGI (MALME-3M melanoma) of 10.2 µM, a GI50 (NCI/ADR-RES ovarian) of 3.99 µM and a TGI (NCI/ADR-RES ovarian) of 12.4 µM. For the same compound, the GI50 (SF-268 CNS) was 5.98 µM, the TGI (SF-268 CNS) was 14.3 µM and the GI50 (DU-145 prostate) was 4.78 µM. It also gave a TGI (DU-145 prostate) of 32.7 µM, a GI50 (SK-MEL-28 melanoma) of 2.09 µM and a TGI (SK-MEL-28 melanoma) of 8.52 µM. The GI50 (CCRF-CEM leukemia) was 1.84 µM, the TGI (CCRF-CEM leukemia) was > 33.2 µM and the GI50 (SR leukemia) was 1.43 µM. For the same compound, the TGI (SR leukemia) was > 33.2 µM, the GI50 (K-562 leukemia) was 1.58 µM and the TGI (K-562 leukemia) was > 33.2 µM. For the same compound, the GI50 (SF-539 CNS) was 4.61 µM, the TGI (SF-539 CNS) was 13 µM and the GI50 (COLO 205 colon) was 4.03 µM. For the same compound, the TGI (COLO 205 colon) was 11.8 µM, the GI50 (HT29 colon) was 3.77 µM and the TGI (HT29 colon) was > 33.2 µM. For the same compound, the GI50 (SK-MEL-2 melanoma) was 3.31 µM, the TGI (SK-MEL-2 melanoma) was 8.97 µM and the GI50 (SW-620 colon) was 1.8 µM. For the same compound, the TGI (SW-620 colon) was 7.24 µM, the GI50 (T-47D breast) was 2.96 µM and the TGI (T-47D breast) was 25.3 µM. For the same compound, the GI50 (HOP-62 NSCLC) was 4.76 µM, the TGI (HOP-62 NSCLC) was 29.4 µM and the GI50 (M14 melanoma) was 3.82 µM. It also gave a TGI (M14 melanoma) of 12.5 µM, a GI50 (A498 renal) of 0.7 µM and a TGI (A498 renal) of 6.41 µM. For the same compound, the GI50 (UACC-257 melanoma) was 4.67 µM, the TGI (UACC-257 melanoma) was 14.5 µM and the GI50 (MCF7 breast) was 5.57 µM. It also gave a TGI (MCF7 breast) of 30 µM, a GI50 (HOP-92 NSCLC) of 0.74 µM and a TGI (HOP-92 NSCLC) of 4.18 µM.
